In ChEMBL document CHEMBL5725742, “Imidazopyridazine derivatives as PI3KB inhibitors” (2018):

Columns and labels:
[1] = (§1) KINOMEscan Enzyme Binding Assays: Kinase enzyme binding affinities of compounds disclosed herein were determined using the KINOMEscan technology performed by DiscoveRx Corporation, San Diego, Calif., USA (www.kinomescan.com).
[2] = biological target: T1, Phosphatidylinositol 4,5-bisphosphate 3-kinase catalytic subunit delta isoform (Homo sapiens, UniProt O00329); experiment: as §1
T1 sequence (O00329 whole entry): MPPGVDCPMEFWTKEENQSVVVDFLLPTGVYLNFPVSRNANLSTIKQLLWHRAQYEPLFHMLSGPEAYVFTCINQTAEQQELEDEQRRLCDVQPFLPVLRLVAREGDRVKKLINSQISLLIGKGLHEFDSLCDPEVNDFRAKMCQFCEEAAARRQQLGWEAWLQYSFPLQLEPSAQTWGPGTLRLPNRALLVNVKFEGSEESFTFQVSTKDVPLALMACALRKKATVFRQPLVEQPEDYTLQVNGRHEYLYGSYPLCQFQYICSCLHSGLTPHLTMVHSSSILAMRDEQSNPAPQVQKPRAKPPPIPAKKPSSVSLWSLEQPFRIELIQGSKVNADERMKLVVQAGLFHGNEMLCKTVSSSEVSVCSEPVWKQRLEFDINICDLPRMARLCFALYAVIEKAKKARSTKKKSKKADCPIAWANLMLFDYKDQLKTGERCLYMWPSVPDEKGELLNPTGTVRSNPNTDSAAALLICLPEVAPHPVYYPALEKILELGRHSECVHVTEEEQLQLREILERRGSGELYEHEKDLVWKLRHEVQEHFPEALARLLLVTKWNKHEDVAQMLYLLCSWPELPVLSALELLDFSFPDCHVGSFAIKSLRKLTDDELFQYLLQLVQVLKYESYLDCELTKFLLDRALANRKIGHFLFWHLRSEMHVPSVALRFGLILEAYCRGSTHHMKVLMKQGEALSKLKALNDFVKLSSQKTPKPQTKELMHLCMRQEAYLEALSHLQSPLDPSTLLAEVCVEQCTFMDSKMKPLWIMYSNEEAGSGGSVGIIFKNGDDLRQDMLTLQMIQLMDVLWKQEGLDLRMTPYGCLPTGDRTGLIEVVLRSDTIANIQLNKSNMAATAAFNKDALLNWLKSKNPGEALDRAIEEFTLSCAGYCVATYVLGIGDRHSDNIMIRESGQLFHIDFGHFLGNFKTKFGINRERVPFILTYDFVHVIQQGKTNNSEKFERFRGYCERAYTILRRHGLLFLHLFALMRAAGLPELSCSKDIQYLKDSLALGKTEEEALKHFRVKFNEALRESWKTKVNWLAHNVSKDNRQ

[3] = biological target: Phosphatidylinositol 4,5-bisphosphate 3-kinase catalytic subunit gamma isoform (Homo sapiens, UniProt P48736); experiment: as §1
Chain of Phosphatidylinositol 4,5-bisphosphate 3-kinase catalytic subunit gamma isoform (P48736 whole entry, canonical isoform): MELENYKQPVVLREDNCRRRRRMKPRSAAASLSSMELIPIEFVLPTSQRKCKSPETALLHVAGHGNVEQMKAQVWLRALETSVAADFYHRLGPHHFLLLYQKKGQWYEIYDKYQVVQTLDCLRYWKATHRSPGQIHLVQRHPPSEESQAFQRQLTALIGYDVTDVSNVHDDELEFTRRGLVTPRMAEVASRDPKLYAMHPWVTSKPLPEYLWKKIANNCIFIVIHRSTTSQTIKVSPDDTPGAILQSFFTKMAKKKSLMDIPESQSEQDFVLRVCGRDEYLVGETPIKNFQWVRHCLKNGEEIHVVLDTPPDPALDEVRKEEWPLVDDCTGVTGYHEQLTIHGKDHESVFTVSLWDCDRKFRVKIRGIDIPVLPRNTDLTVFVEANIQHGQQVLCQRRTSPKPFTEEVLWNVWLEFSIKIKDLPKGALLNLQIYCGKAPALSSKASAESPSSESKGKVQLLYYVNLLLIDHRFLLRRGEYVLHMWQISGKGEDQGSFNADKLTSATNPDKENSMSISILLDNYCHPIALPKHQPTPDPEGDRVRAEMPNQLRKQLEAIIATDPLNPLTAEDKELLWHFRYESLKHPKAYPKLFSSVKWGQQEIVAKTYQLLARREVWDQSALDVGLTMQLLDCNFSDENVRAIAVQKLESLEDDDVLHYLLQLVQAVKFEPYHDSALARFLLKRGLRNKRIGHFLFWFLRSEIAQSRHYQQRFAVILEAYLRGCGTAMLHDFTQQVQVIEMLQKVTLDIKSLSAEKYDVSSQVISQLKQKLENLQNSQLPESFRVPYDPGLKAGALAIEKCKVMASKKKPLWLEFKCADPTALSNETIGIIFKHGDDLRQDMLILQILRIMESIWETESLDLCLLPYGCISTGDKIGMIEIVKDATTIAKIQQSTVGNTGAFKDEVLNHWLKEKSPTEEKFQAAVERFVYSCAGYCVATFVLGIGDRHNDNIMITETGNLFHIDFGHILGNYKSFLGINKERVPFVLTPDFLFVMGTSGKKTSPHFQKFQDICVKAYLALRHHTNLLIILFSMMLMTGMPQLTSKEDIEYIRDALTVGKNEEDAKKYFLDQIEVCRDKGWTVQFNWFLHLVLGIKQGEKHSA

Row | Kd [1] | Kd [2] | Kd [3] | SMILES
1 | > 30200 nM |  |  | CC(CO)NCc1c(F)cccc1Cc1c(CO)nc2c(N)cc(N3CCOCC3)nn12 (stereo not given)
2 |  | 427 nM | 724 nM | CCc1c(F)cccc1Cc1c(CNCCO)nc2c(N)cc(N3CCOCC3)nn12
3 |  | 80 nM | 1760 nM | Cc1c(Cc2c(CO)nc3c(-c4cnc[nH]4)cc(N4CCOCC4)nn23)cccc1C(F)(F)F
